We go through five molecules from US20240122938A1, “METHODS AND COMPOSITIONS FOR TREATING UVEAL MELANOMA” (INSERM (INSTITUT NATIONAL DE LA SANTÉ ET DE LA RECHERCHE …, priority 2019, published 2024).

For data set [1], the system named is OMM1 cells. As to the kind of experiment: Cell proliferation assay. It is filed as cell-based, human. How it is done: (§1) Human uveal melanoma cell lines and short-term cultures derived from different patients with metastatic malignant melanoma cells were grown in DMEM supplemented with 7% FBS at 37° C. in a humidified atmosphere containing 5% CO2. Lipofectamine™ RNAiMAX and opti-MEM medium were purchased from Invitrogen (San Diego, CA, USA). ABT-263 was obtained from Euromedex and qVD from Clinisciences.

Data set [2] has as its system OMM2,5 metastatic melanoma cells. The data set can be described thus: Cell proliferation assay. It is filed as cell-based, human. As for the experimental part:
as §1

In data set [3] the test system is primary melanoma cells. As to the kind of experiment: Cell proliferation assay. In kind it is cell-based, human. The settings on record: data not shown. How it is done: as §1
Data set [4] deals with Mel270 cells. The data set can be described thus: Cell death / alive cells by Annexin V/DAPI FACS. The note with it: GSK2606414 5 μM, 48 h. It is filed as cell-based, human. As for the experimental part:
FIG. 5: PERK dampens ABT-263 killing activity. (A) Q-PCR analysis of PERK level in Mel270 uveal melanoma cells treated with control (siCtl) or PERK (siPERK) siRNA for 48 hr. (B) Mel270 cells were treated with control (siCtl) or PERK (siPERK) siRNA for 48 hrs before being exposed to ABT-263 3 μM for 48 hr. FACS analyses of Annexin V/DAPI double staining in […] indicate alive (white) or dead (early, late apoptosis and necrosis in light grey) cells. (C) Mel270 cells were treated with ABT-263 5 μM or GSK2606414 5 μM alone or in combination for 48 h.
(§2) Cells were seeded at a density of 100 000 cells/well, in 6-well plate and treated with ABT-263 for indicated time. Cells were harvested using accutase enzyme, washed twice with ice-cold phosphate-buffered saline, resuspended in a buffer (Hepes 250 mM, NaCl 150 mM, KCl 5 mM, MgCl2 2 mM, CaCl2) 2 mM) with DAPI (1 μg/ml) and Annexin V-Alexa Fluor 647 conjugate (1/100) and incubated for 15 minutes at room temperature (25° C.) in the dark. Samples were immediately analyzed by a flow cytometer (MACS QUANT) using a laser at 405 nm excitation with a bandpass filter at 425 nm and 475 nm for DAPI detection and a laser at 635 nm excitation with a bandpass filter at 650 nm and 665 nm for Alexa Fluor 647 dye. Annexin and DAPI mono- or double positive cells were counted as dead cells.

The test system of data set [5] is 92.1 cells. As to the kind of experiment: Cell death / apoptosis. In kind it is cell-based, human. The note with it: data not shown. As for the experimental part:
as §2

The subject of data set [6] is ER stress molecules in Mel270 cells. As to the kind of experiment: Western blot of ER stress molecules. It is filed as cell-based, human. As for the experimental part: Western blot of ER stress molecules in Mel270 cells treated with ABT-263 5 μM in the absence or presence of QVD-OPh 20 μM. Representative western blot are shown.
(§3) Western blotting was performed as previously described 25,26. Briefly, cell lysates (30 μg) were separated using SDS-PAGE, transferred onto a PVDF membrane and subsequently exposed to the appropriate antibodies, anti-BCL2 (ms-123-PO) was from neomarker, anti-caspase 3 (#610323) was from BD, anti-BAX (#8429) was from sigma, anti-PARP (#9542), anti-BCL-XL (#2762), anti-caspase 9 (#9502) and anti-PUMA (#4976) were from Cell Signaling Technology Inc, anti-MCL1 (#sc-819), anti-NOXA (#56169), and anti-HSP90 (#sc-13119) were from Santa Cruz biotechnology. The proteins were visualized using the ECL system (Amersham).

Data set [7] has as its system OMM1 uveal melanoma cells. The data set can be described thus: Mitochondrial membrane potential by TMRE staining. The note with it: OMM1 cells. In kind it is cell-based, human. As for the experimental part:
(§4) FIG. 1. ABT-263 induces apoptosis of uveal melanoma cells. Detection of the mitochondrial membrane potential using TMRE staining in Mel270 and OMM1 uveal melanoma cells exposed to ABT-263 3 μM or 5 μM for 48 h in the absence or presence of QVD-OPh 20 μM.

The test system of data set [8] is Mel270 uveal melanoma cells. The data set can be described thus: Mitochondrial membrane potential by TMRE staining. In kind it is cell-based, human. The settings on record: Mel270 cells. As for the experimental part:
as §4

Data set [9] has as its system PARP, caspase 9 and caspase 3 in primary and metastatic uveal melanoma cells. As to the kind of experiment: Western blot of PARP and caspases. It is filed as cell-based, human. The note with it: pretreatment with pan caspase inhibitor.
The test system of data set [10] is panel of human uveal melanoma cell lines. The data set can be described thus: Cell death by Annexin V/DAPI staining with qVD. In kind it is cell-based. The settings on record: all cell lines. How it is done: as §2
Data set [11] concerns ER stress molecules in metastatic human uveal melanoma cells. As to the kind of experiment: Western blot of ER stress molecules. It is filed as cell-based. The note with it: OMM1. How it is done: as §3, with “(Amersham). The western blots shown are representative of at least 3 independent experiments.” for “(Amersham).”

`CC1(C)CCC(CN2CCN(c3ccc(C(=O)NS(=O)(=O)c4ccc(NCC5CCOCC5)c([N+](=O)[O-])c4)c(Oc4cnc5[nH]ccc5c4)c3)CC2)=C(c2ccc(Cl)cc2)C1` [ABT-199] had a proliferation inhibition in data set [1] (OMM1 cells, data not shown) of 15%.
As to `CN(C)CC[C@H](CSc1ccccc1)Nc1ccc(S(=O)(=O)NC(=O)c2ccc(N3CCN(Cc4ccccc4-c4ccc(Cl)cc4)CC3)cc2)cc1[N+](=O)[O-]` [ABT-737], the proliferation entry in data set [2] and in data set [1] (OMM1 metastatic melanoma cells) was “strongly reduced proliferation” in each case. Besides, the “proliferation, response of primary melanoma cells” value in data set [3] was “highly resistant”.
For `Cn1cc(-c2ccc3c(c2)CCN3C(=O)Cc2cccc(C(F)(F)F)c2)c2c(N)ncnc21` [GSK2606414], the “viable cells, alone” value in data set [4] was “no effect”. For the same molecule, in data set [5], the “sensitivity of 92.1 cells to ABT-263 with GSK2606414” value is “resensitized”. Further, in data set [6] (cell line not stated, data not shown), the “CHOP and ATF4 accumulation” value is “inhibited CHOP and ATF4 accumulation”.
Consider `CC(C)[C@H](NC(=O)c1ccc2ccccc2n1)C(=O)N[C@@H](CC(=O)O)C(=O)COc1c(F)cccc1F` [qVD], for which the “effect of qVD on mitochondrial membrane depolarization after ABT-263” value in data set [7] is “prevented mitochondrial membrane depolarization”; in data set [8] it was “did not prevent it”. Further, the “PARP and caspase cleavage under ABT-263 after QVD pretreatment” value in data set [9] is “prevented PARP and caspase cleavage”. In [6] (Mel270, QVD-OPh 20 μM), the “effect of qVD on ABT-263 mediated change in ER molecules” value is recorded as “did not impact”. For the same molecule, in [10], the “effect of qVD on ABT-263 cytotoxicity” value is recorded as “protective effect”.
As for tunicamycin, the CHOP stimulation entry in data set [11] is recorded as “able to stimulate CHOP”.
